As a reminder, the IC50 is the midpoint of a concentration-inhibition curve.

The target of one assay is KRAS-G12D (Homo sapiens, UniProt P01116, G12D). The experiment in a line: SOS-catalyzed nucleotide exchange assay (Procedure A, TR-FRET), KRAS-G12D. The settings on record: nucleotide exchange, read-out: KRAS G12D GNE IC50. The assay is classed as biochemical. In outline:
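Signal ratio (520/495 nm, excitation 340 nm) reports Bodipy-GDP retention on biotinylated RAS after SOS-catalyzed exchange with 3 mM GTP. SOS was 40 nM, except 160 nM for G12V. Room-temperature exchange lasted 60 min (90 min for G12V), following a 60 min compound preincubation.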

For another assay, the system named is SW620 cells. Description: Cellular phospho-ERK assay, SW620 cells (homozygous KRAS-G12V). The assay is classed as cell-based. Conditions: Homo sapiens, read-out: SW620 pERK IC50. In outline: (§1)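 Cells seeded at 10,000-15,000 per well were incubated overnight, then exposed to compound for 2 hours at 37 °C in a 10-point, 1:3 series topping at 30 μM final. Lysates were assayed by Alpha SureFire Ultra multiplex for p-ERK and total ERK; IC50 came from a 4-parameter logistic fit of their ratio.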

The next assay addresses KRAS-WT (Homo sapiens, UniProt P01116). The experiment in a line: SOS-catalyzed nucleotide exchange assay (Procedure A, TR-FRET), KRAS-WT. The settings on record: nucleotide exchange, read-out: KRAS WT GNE IC50. The assay is classed as biochemical. A digest of the protocol: (§2)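 TR-FRET readout (520/495 nm) of SOS-driven exchange of Bodipy-GDP for unlabeled GTP (3 mM) on biotinylated, Tb-streptavidin-bound RAS, after 60 min compound preincubation at room temperature. Exchange times and RAS/SOS levels: 60 min for WT (1/40 nM), G12C triple mutant (3/40 nM), NRAS (1.25/40 nM); 90 min for G12V (1.25/160 nM). Four-parameter logistic fits on normalized effect.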
On the technique in general: TR-FRET usually uses a lanthanide donor and a delayed reading to cut background.

Another assay concerns the target KRAS-G13D (Homo sapiens, UniProt P01116, G13D). The experiment in a line: SOS-catalyzed nucleotide exchange assay (Procedure A, TR-FRET), KRAS-G13D. The assay is classed as biochemical. Conditions: nucleotide exchange, Procedure A; read-out: KRAS G13D GNE IC50.
The target in the next assay is HRAS (Homo sapiens, UniProt P01112). The experiment in a line: SOS-catalyzed nucleotide exchange assay (Procedure A, TR-FRET), HRAS. The assay is classed as biochemical. The settings on record: read-out: HRAS GNE IC50. An excerpt:
Procedure for SOS-Catalyzed Nucleotide Exchange Assay for KRAS-WT, G12C/D/V, G13D, HRAS, and NRAS (Procedure A)
Recombinant KRAS-G12C protein used in this assay has an additional triple mutation (C51S/C80L/C118S). Whereas KRAS-WT, G12D/V, G13D, HRAS and NRAS are in context of their WT protein sequence background. Specifically, the SOS-catalyzed nucleotide exchange assay utilizes a preformed TR-FRET complex containing a specific biotinylated RAS protein (KRAS-WT, G12C/V/D, G13D, HRAS, NRAS; described above) with Bodipy-GDP, and Terbium-streptavidin. Compounds are preincubated with this complex for 60 minutes. Subsequently, recombinant human SOS protein and unlabeled GTP are added to initiate the exchange reaction. Small molecule inhibitors stabilize the Bodipy-GDP complex whereas the untreated protein rapidly exchanges Bodipy-GDP for unlabeled GTP resulting in reduced TR-FRET signal.
To assemble the preformed TR-FRET complexes, each biotinylated RAS protein is diluted to 2 μM in an EDTA Buffer (20 mM HEPES pH 7.5, 50 mM sodium chloride, 10 mM EDTA, and 0.01% Tween) and incubated at room temperature for one hour. This mixture is then further diluted to 90 nM in an Assay Buffer (20 mM HEPES pH 7.5, 150 mM sodium chloride, 10 mM magnesium chloride, and 0.005% Tween) containing 15 nM of Terbium-Streptavidin (Invitrogen, catalog #PV3577) and 900 nM of Bodipy-GDP (Invitrogen, catalog #G22360) and incubated at room temperature for six hours. It should be noted that this preformed TR-FRET complex for each of the RAS protein were made ahead of time, aliquoted and stored at −80° C. until the day of the experiment.
Each test compound (10 mM stock in DMSO) is diluted in DMSO to make a final-10-point, 3-fold dilution and is acoustically dispensed into a 384-well assay plate (Corning, catalog #3820) using an Echo 550 (Labcyte). Each well of the assay plate receives 3 μL of a specific 3×RAS preformed TR-FRET complex and 3 μL of Assay Buffer and is incubated at room temperature for 60 minutes (preincubation time). Each well then receives 3 μL of 3×recombinant human SOS protein and GTP (Sigma, G8877) in Assay Buffer and is incubated at room temperature for 30 minutes (G13D), 60 minutes (KRAS WT/G12C/D, H/NRAS) or 90 minutes for G12V. The final reaction in each well of 9 μL consists of 3 mM GTP, specific Ras and SOS proteins in the following concentrations: KRAS-G12C/SOS=3 nM/40 nM, KRAS-WT and G12D/SOS=1 nM/40 nM, KRAS-G12V/SOS=1.25 nM/160 nM. KRAS-G13D/SOS=1.25 nM/0 nM, HRAS and NRAS=1.25 nM/40 nM.
The time-resolved fluorescence resonance energy transfer (TR-FRET) signal is measured on an Envision (PerkinElmer) plate reader: Excitation filter=340 nm; emission 1=495 nm; emission2=520 nm; dichroic mirror=D400/D505; delay time=[…]. The signal of each well is determined as the ratio of the emission at 520 nm to that at 495 nm. Percent effect of each well is determined after normalization to control wells containing DMSO (no effect) or a saturating concentration of inhibitor (max effect). The apparent effect as a function of compound concentration is fit to a four-parameter logistic equation.

For assay [1], the target named is KRAS-G12C (C51S/C80L/C118S) (Homo sapiens, UniProt P01116, C118S/C51S/C80L/G12C). The experiment in a line: SOS-catalyzed nucleotide exchange assay (Procedure A, TR-FRET), KRAS-G12C. The assay is classed as biochemical. The settings on record: nucleotide exchange, Procedure A; read-out: KRAS G12C GNE IC50. A digest of the protocol:
as §2

A further assay deals with KRAS-G12V (Homo sapiens, UniProt P01116, G12V). Description: SOS-catalyzed nucleotide exchange assay (Procedure A, TR-FRET), KRAS-G12V. The assay is classed as biochemical. The settings on record: nucleotide exchange, read-out: KRAS G12V GNE IC50. A digest of the protocol:
as §2

For the next assay, the system named is MKN-1 cells. The experiment in a line: Cellular phospho-ERK assay, MKN-1 cells (amplified wild-type KRAS). The assay is classed as cell-based. The settings on record: Homo sapiens, read-out: MKN1 pERK IC50. A digest of the protocol: as §1
The next assay deals with AsPC-1 cells. The experiment in a line: Cellular phospho-ERK assay, AsPC-1 cells (homozygous KRAS-G12D). The assay is classed as cell-based. The settings on record: Homo sapiens, ASPC1, 2 h, read-out: AsPC1 pERK IC50. In outline:
as §1

[2] abbreviates: SW-620, 2 hours compound incubation.

Read-outs that look alike come from different tables or passages of the source.

KRAS-G12D, sequence (P01116 with tags, fused parts or gaps isoform P01116-2 G12D): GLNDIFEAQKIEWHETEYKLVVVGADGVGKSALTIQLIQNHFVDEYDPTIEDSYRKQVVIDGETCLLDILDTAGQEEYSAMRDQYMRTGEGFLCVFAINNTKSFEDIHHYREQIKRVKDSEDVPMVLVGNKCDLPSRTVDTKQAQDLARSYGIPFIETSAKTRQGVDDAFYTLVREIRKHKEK
KRAS-G13D, sequence (P01116 with tags, fused parts or gaps isoform P01116-2 G13D): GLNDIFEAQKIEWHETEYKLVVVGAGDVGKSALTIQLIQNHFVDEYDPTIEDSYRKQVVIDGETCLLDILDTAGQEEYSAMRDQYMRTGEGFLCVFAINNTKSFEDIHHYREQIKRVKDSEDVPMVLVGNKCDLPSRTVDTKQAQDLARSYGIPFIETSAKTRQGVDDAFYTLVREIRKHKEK
HRAS, sequence (P01112 with tags, fused parts or gaps): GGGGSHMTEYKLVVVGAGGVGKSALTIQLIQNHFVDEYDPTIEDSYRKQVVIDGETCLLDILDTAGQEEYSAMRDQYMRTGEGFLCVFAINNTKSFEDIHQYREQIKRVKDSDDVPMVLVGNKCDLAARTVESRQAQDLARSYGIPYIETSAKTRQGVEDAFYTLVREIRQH
KRAS-G12C (C51S/C80L/C118S), sequence (P01116 with tags, fused parts or gaps isoform P01116-2 G12C/C51S/C80L/C118S): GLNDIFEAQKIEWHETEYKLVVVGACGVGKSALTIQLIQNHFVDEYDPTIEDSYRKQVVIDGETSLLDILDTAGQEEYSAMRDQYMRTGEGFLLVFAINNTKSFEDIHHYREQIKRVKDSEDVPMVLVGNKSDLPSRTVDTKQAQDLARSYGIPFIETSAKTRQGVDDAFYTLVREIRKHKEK
KRAS-G12V, sequence (P01116 with tags, fused parts or gaps isoform P01116-2 G12V): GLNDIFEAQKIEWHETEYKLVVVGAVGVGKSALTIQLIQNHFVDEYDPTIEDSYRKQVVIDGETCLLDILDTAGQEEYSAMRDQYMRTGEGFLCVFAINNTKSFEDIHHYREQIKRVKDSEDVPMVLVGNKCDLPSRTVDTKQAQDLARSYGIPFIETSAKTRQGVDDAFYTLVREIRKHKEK
KRAS-WT, sequence (P01116 with tags, fused parts or gaps isoform P01116-2): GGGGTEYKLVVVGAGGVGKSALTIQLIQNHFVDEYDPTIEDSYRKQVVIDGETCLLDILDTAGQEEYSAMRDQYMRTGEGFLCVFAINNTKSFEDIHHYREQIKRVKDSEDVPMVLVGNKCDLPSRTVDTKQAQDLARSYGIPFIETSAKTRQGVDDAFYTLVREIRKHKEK

For `C#Cc1c(F)ccc2cc3[nH]ncc3c(-c3nccc4c3sc3nc(OC[C@@]56CCCN5C[C@H](F)C6)nc(N5CCOC[C@@](C)(O)C5)c34)c12` [Ex-160, (6S)-4-(8-(5-ethynyl-6-fluoro-1H-benzo[f]indazol-4-yl)-2-(((2R,7aS)-2-fluorotetrahydro-1H-pyrrolizin-7a(5H)-yl)methoxy)pyrido[4′,3′:4,5]thieno[2,3-d]pyrimidin-4-yl)-6-methyl-1,4-oxazepan-6-ol], the IC50 on KRAS-G12D is 2.43 nM; in the assay with SW620 cells (setting [2]), 7.87 nM; at KRAS-WT, 4.41 nM; at KRAS-G13D, 4.55 nM; on HRAS it was 5540 nM; in [1], 53.2 nM. In addition, the IC50 on KRAS-G12V was 5.25 nM; in the assay with MKN-1 cells (2 hours compound incubation), 19.9 nM; with AsPC-1 cells (2 hours compound incubation), 18.9 nM.

Take `C[C@@]1(O)COCCN(c2nc(OC[C@]3(CN4CC5(CC(F)C5)C4)CC3(F)F)nc3sc4c(-c5c(C6CC6)c(Cl)cc6[nH]ncc56)nccc4c23)C1` [Ex-230]: the IC50 on KRAS-G12D was found to be 16 nM; with SW620 cells (setting [2]), 23.2 nM; at KRAS-WT, 88.5 nM; on KRAS-G13D, 13.9 nM; at HRAS it was 1640 nM; in [1] it was 21.1 nM. The IC50 at KRAS-G12V was 70.1 nM; with MKN-1 cells (2 hours compound incubation) it was 52.7 nM; in the assay on AsPC-1 cells (2 hours compound incubation) it was 51.5 nM.

On to `C=C1CN2CCC[C@@]2(COc2nc(N3CCOC[C@@](C)(O)C3)c3c(n2)sc2c(-c4c(C5CC5)c(Cl)cc5[nH]ncc45)nccc23)C1` [Ex-224, (6S)-4-(8-(6-chloro-5-cyclopropyl-1H-indazol-4-yl)-2-(((S)-2-methylene-tetrahydro-1H-pyrrolizin-7a(5H)-yl)methoxy)pyrido [4′,3′:4,5]thieno[2,3-d]pyrimidin-4-yl)-6-methyl-1,4-oxaze-pan-6-ol], for which the IC50 at KRAS-G12D came to 2.72 nM; in the assay with SW620 cells (setting [2]), 9.81 nM; at KRAS-WT it was 5.37 nM; on KRAS-G13D, 5.48 nM; on HRAS, 3310 nM; in assay [1], 19 nM. Further, the IC50 at KRAS-G12V was 11.9 nM; in the assay on MKN-1 cells (2 hours compound incubation) it was 23.5 nM; in the assay on AsPC-1 cells (2 hours compound incubation), 19.4 nM.

Take `CN1CCC[C@@]2(COc3nc(N4CCOC[C@@](C)(O)C4)c4c(n3)sc3c(-c5c(C6CC6)c(C(F)(F)F)cc6[nH]ncc56)nccc34)CCC[C@@H]12` [Ex-205, (6S)-4-(8-(5-cyclopropyl-6-(trifluoromethyl)-1H-indazol-4-yl)-2-(((4aS,7aR)-1-methyloctahydro-4aH-cyclopenta[b]pyridin-4a-yl)methoxy)pyrido[4′,3′:4,5]thieno[2,3-d]pyrimidin-4-yl)-6-methyl-1,4-oxazepan-6-ol]: the IC50 at KRAS-G12D was determined as 1.69 nM; in the assay with SW620 cells (setting [2]), 15.1 nM; on KRAS-WT, 3.94 nM; on KRAS-G13D it was 10.7 nM; at HRAS, 5090 nM; in assay [1], 40.1 nM. Besides, the IC50 on KRAS-G12V worked out at 4.42 nM; in the assay with MKN-1 cells (2 hours compound incubation), 17 nM; in the assay with AsPC-1 cells (2 hours compound incubation) it was 22.3 nM.

Regarding `C[C@@]1(O)COCCN(c2nc(OC[C@@]34CCCN3C[C@H](F)C4)nc3sc4c(-c5c(C6CC6)c(Cl)cc6[nH]ncc56)nncc4c23)C1` [Ex-280, (6S)-4-(8-(6-chloro-5-cyclopropyl-1H-indazol-4-yl)-2-(((2R,7aS)-2-fluorotetrahydro-1H-pyrrolizin-7a(5H)-yl)methoxy)pyrimi-do[5′,4′:4,5]thieno[2,3-d]pyridazin-4-yl)-6-methyl-1,4-oxazepan-6-ol], the IC50 at KRAS-G12D was determined as 4.55 nM; in the assay on SW620 cells (SW-620, KRAS-G12V, 2 hours), 106 nM; on KRAS-WT it was 9.47 nM; at KRAS-G13D it was 4.89 nM; at HRAS, 8660 nM; in assay [1], 61 nM. Besides, the IC50 at KRAS-G12V worked out at 12.4 nM; in the assay on MKN-1 cells (amplified wild-type KRAS, 2 hours), 62 nM; in the assay on AsPC-1 cells (KRAS-G12D, 2 hours) it was 78.2 nM.

`CCC1CCc2cc3[nH]ncc3c(-c3nccc4c3sc3nc(OC[C@@]56CCCN5C[C@H](F)C6)nc(N5CCOC[C@@](C)(O)C5)c34)c21` (stereo partly drawn) [Ex-169, (6S)-4-(8-(5-ethyl-1,5,6,7-tetrahydro-cyclopenta[f]indazol-4-yl)-2-(((2R,7aS)-2-fluorotetrahydro-1H-pyrrolizin-7a(5H)-yl)methoxy)pyrido [4′,3′:4,5]thieno[2,3-d]pyrimidin-4-yl)-6-methyl-1,4-oxaze-pan-6-ol]: the IC50 at KRAS-G12D is 2.22 nM; in the assay on SW620 cells (setting [2]), 25.8 nM; on KRAS-WT it was 7.7 nM; at KRAS-G13D, 7.05 nM; at HRAS it was 9790 nM; in assay [1] it was 15.5 nM. Further, the IC50 worked out at 13.5 nM on KRAS-G12V, 21.2 nM in the assay with MKN-1 cells (2 hours compound incubation) and 30.9 nM with AsPC-1 cells (2 hours compound incubation).

Consider `[2H]C([2H])([2H])N(C[C@@]1(COc2nc(N3CCOC[C@@](C)(O)C3)c3c(n2)sc2c(-c4c(C5(F)CC5)c(Cl)cc5[nH]ncc45)nccc23)CC1(F)F)C([2H])([2H])[2H]` [Ex-231], for which the IC50 is 2.87 nM at KRAS-G12D; 8.55 nM at KRAS-WT; 15 nM on KRAS-G13D; 492 nM on HRAS; 20.3 nM in [1]; 8.77 nM at KRAS-G12V. The IC50 with AsPC-1 cells (2 hours compound incubation) was 25.7 nM.

Source of the values: US20260176289A1, “SMALL MOLECULE INHIBITORS OF KRAS PROTEINS” (Merck Sharp & Dohme LLC, priority 2022, published 2026).
